According to the supplement of paper PMC4862054:

Key:
Details in all cases: incubation time: 72 h
BT-474 [1] = experiment: normalised response (% of control), CellTox Green; higher = less cell death (100 = DMSO, 0 = benzethonium chloride kill control)
Procedure, shortened: (§1)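 Each entry is the normalised signal at a single concentration within a series. The series comprised 5 concentrations in 10-fold steps over a compound-specific 10,000-fold range, placed in 384-well plates into which breast cancer cell lines were seeded as 20 µl suspension and incubated 72 h. CellTox Green (485/520 nm) fluorescence and then CellTiter-Glo luminescence were read, with signals normalised per plate to 0.1 % DMSO (100) and a positive kill control (0).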

BT-549 [2] = experiment: as above
Procedure, shortened: as §1

CAL-120 [3] = experiment: as above
Procedure, shortened: as §1

CAL-148 [4] = experiment: as above
Procedure, shortened: as §1

CAL-51 [5] = experiment: as above
Procedure, shortened: as §1

CAL-85-1 [6] = experiment: as above
Procedure, shortened: as §1

DU-4475 [7] = experiment: as above
Procedure, shortened: as §1

HCC1143 [8] = experiment: as above
Procedure, shortened: as §1

HCC1599 [9] = experiment: as above
Procedure, shortened: as §1

HDQ-P1 [10] = experiment: as above
Procedure, shortened: as §1

Hs578T [11] = experiment: as above
Procedure, shortened: as §1

MCF-10A [12] = experiment: as above
Procedure, shortened: as §1

MDA-MB-231 [13] = experiment: as above
Procedure, shortened: as §1

MDA-MB-436 [14] = experiment: as above
Procedure, shortened: as §1

MDA-MB-453 [15] = experiment: as above
Procedure, shortened: as §1

MDA-MB-468 [16] = experiment: as above
Procedure, shortened: as §1

BT-474 [17] = experiment: normalised response (% of control), CellTiter-Glo; higher = more viable cells (100 = DMSO, 0 = benzethonium chloride kill control)
Procedure, shortened: as §1

BT-549 [18] = experiment: as above
Procedure, shortened: as §1

CAL-120 [19] = experiment: as above
Procedure, shortened: as §1

CAL-148 [20] = experiment: as above
Procedure, shortened: as §1

CAL-51 [21] = experiment: as above
Procedure, shortened: as §1

CAL-85-1 [22] = experiment: as above
Procedure, shortened: as §1

DU-4475 [23] = experiment: as above
Procedure, shortened: as §1

HCC1143 [24] = experiment: as above
Procedure, shortened: as §1

HCC1599 [25] = experiment: as above
Procedure, shortened: as §1

HCC1937 [26] = experiment: as above
Procedure, shortened: as §1

HDQ-P1 [27] = experiment: as above
Procedure, shortened: as §1

Hs578T [28] = experiment: as above
Procedure, shortened: as §1

MCF-10A [29] = experiment: as above
Procedure, shortened: as §1

MDA-MB-231 [30] = experiment: as above
Procedure, shortened: as §1

MDA-MB-436 [31] = experiment: as above
Procedure, shortened: as §1

MDA-MB-453 [32] = experiment: as above
Procedure, shortened: as §1

MDA-MB-468 [33] = experiment: as above
Procedure, shortened: as §1

MFM-223 [34] = experiment: as above
Procedure, shortened: as §1

SK-BR-3 = experiment: as above
Procedure, shortened: as §1

MFM-223 [35] = experiment: normalised response (% of control), CellTox Green; higher = less cell death (100 = DMSO, 0 = benzethonium chloride kill control)
Procedure, shortened: as §1

HCC1937 [36] = experiment: as above
Procedure, shortened: as §1

SMILES	normalised response (BT-474 [1]) [%]	normalised response (BT-549 [2]) [%]	normalised response (CAL-120 [3]) [%]	normalised response (CAL-148 [4]) [%]	normalised response (CAL-51 [5]) [%]	normalised response (CAL-85-1 [6]) [%]	normalised response (DU-4475 [7]) [%]	normalised response (HCC1143 [8]) [%]	normalised response (HCC1599 [9]) [%]	normalised response (HDQ-P1 [10]) [%]	normalised response (Hs578T [11]) [%]	normalised response (MCF-10A [12]) [%]	normalised response (MDA-MB-231 [13]) [%]	normalised response (MDA-MB-436 [14]) [%]	normalised response (MDA-MB-453 [15]) [%]	normalised response (MDA-MB-468 [16]) [%]	normalised response (BT-474 [17]) [%]	normalised response (BT-549 [18]) [%]	normalised response (CAL-120 [19]) [%]	normalised response (CAL-148 [20]) [%]	normalised response (CAL-51 [21]) [%]	normalised response (CAL-85-1 [22]) [%]	normalised response (DU-4475 [23]) [%]	normalised response (HCC1143 [24]) [%]	normalised response (HCC1599 [25]) [%]	normalised response (HCC1937 [26]) [%]	normalised response (HDQ-P1 [27]) [%]	normalised response (Hs578T [28]) [%]	normalised response (MCF-10A [29]) [%]	normalised response (MDA-MB-231 [30]) [%]	normalised response (MDA-MB-436 [31]) [%]	normalised response (MDA-MB-453 [32]) [%]	normalised response (MDA-MB-468 [33]) [%]	normalised response (MFM-223 [34]) [%]	normalised response (SK-BR-3) [%]	normalised response (MFM-223 [35]) [%]	normalised response (HCC1937 [36]) [%]
CNC(=O)c1ccc(N2C(=S)N(c3ccc(C#N)c(C(F)(F)F)c3)C(=O)C2(C)C)cc1F [Enzalutamide] (1000 nM)	96	87	104	65.4	93.4	105	107	117	90.2	54.2	96.4	107	90.5	89.5	111	131	102	96.8	95.9	104	74.1	91.7	103	101	107	96.8	95.9	106	107	95.7	92.8	95.7	92.6	97.7	100	–	–
COc1cc2/c(=N/c3ccc(Br)cc3F)nc[nH]c2cc1OCC1CCN(C)CC1 [Vandetanib] (100 nM)	98	102	83	88.6	70.7	98.6	92	85.6	87	–	92	103	85.4	84.2	90.5	67.6	84.7	89	94.4	96.5	83.3	99.3	90.1	86.2	102	90.6	83	94.1	57.3	89.2	91.2	88	83.5	82.5	77.7	98.8	–
S=P(N1CC1)(N1CC1)N1CC1 [Thio-TEPA] (5000 nM)	100	109	100	102	29.6	95.8	99.2	62.1	93.5	96	85.2	109	109	94.6	101	–	94.4	91.7	96.5	93	68.9	97.2	102	96.1	112	96.4	99.5	108	100	96.2	97.4	109	100	105	105	98.8	109
CO[C@H]1C[C@@H]2CC[C@@H](C)[C@@](O)(O2)C(=O)C(=O)N2CCCC[C@H]2C(=O)O[C@H]([C@H](C)C[C@@H]2CC[C@@H](OP(C)(C)=O)[C@H](OC)C2)CC(=O)[C@H](C)/C=C(\C)[C@@H](O)[C@@H](OC)C(=O)[C@H](C)C[C@H](C)/C=C/C=C/C=C/1C [Ridaforolimus] (10 nM)	99.1	134	91.5	93.3	110	94.9	99.8	73	103	–	49.6	109	122	88.2	104	124	89.1	56	66.3	64.5	59.9	69.9	77	65	109	68.4	81.2	61.6	89.5	87.1	76	63.6	59.8	72.8	62.6	100	110
COC(=O)c1ccc2c(c1)NC(=O)/C2=C(\Nc1ccc(N(C)C(=O)CN2CCN(C)CC2)cc1)c1ccccc1 [Nintedanib] (1000 nM)	97.9	111	101	–	105	107	98.5	–	98.1	96	94.1	105	102	107	103	162	101	83.5	85.2	94.6	83.2	97.2	87.6	98.8	98.9	89.4	69.1	93.4	59.3	92	99.4	96.2	96.8	59.2	86	89.4	80.7
CNC(=O)c1ccc(N2C(=S)N(c3ccc(C#N)c(C(F)(F)F)c3)C(=O)C23CCC3)cc1F [RD162] (1000 nM)	96.8	101	101	102	107	118	104	–	96	114	85.7	120	108	111	90.8	96.5	95.3	93.7	99	103	115	96.7	103	98	126	94.6	94.9	104	102	101	98.2	98.9	97.3	102	110	–	83.1
COc1cc(O)c2c(c1)/C=C/C[C@H](O)[C@H](O)C(=O)/C=C\C[C@H](C)OC2=O [(5Z)-7-Oxozeaenol] (1000 nM)	99	79.5	102	15.5	115	35.6	74.4	129	103	66.1	64.6	103	57.4	112	103	140	71.5	40.3	94.2	79.5	106	42.8	8.27	96.9	92	76.1	71.5	91.1	56.9	72	81.3	118	56.5	90.4	115	–	-12.2
CCOC(=O)CCNc1cc(N2CCc3ccccc3CC2)nc(-c2ccccn2)n1 [GSK-J4] (100 nM)	–	–	–	–	–	–	–	–	–	–	–	–	–	–	–	–	95.7	93.8	110	101	97.8	100	95.3	97.6	95.5	95.2	93.1	105	97.3	92.8	92.6	84.8	95.5	103	68.8	–	–
COc1cc2ncnc(Nc3ccc(F)c(Cl)c3)c2cc1OCCCN1CCOCC1 [Gefitinib] (10 nM)	–	–	–	–	–	–	–	–	–	–	–	–	–	–	–	–	100	98.6	96.2	105	103	96.6	100	98.1	89.5	98.3	97	103	95.6	98	103	108	95.9	108	107	–	–
CNC(=O)c1ccc(N2C(=S)N(c3ccc(C#N)c(C(F)(F)F)c3)C(=O)C2(C)C)cc1F [Enzalutamide] (10 nM)	–	–	–	–	–	–	–	–	–	–	–	–	–	–	–	–	103	91.4	95.3	107	124	93.5	101	103	95.8	91.3	100	101	106	94.5	99.4	99	98.7	98.6	98	–	–
